pIC50: −log10 of the molar value. Read-outs that look alike come from different tables or passages of the source.
Legend:
[1] = test system: P. falciparum strain D6; settings: cited from earlier work; further: key: S = sensitive; R = resistant; S/R = intermediate level of resistance
[2] = test system: Dd2 (CQ^R) P. falciparum strain; test: In vitro fluorescence (Sybr Green I) growth inhibition assay, Dd2 strain; assay type: cell-based; settings: Plasmodium falciparum
Source text: (§1) One exemplary method for measuring inhibitory effects of RCQ compound in vitro has been reported by Smilkstein et al. (Antimicrob. Agents Chemother., 48(5):1803-1806, 2004). This method employs fluorescent detection of the level of parasitemia in cultured red blood cells and can be automated for high-throughput screening of antimalarial RCQs. This exemplary method allows the inhibitory agent (such as a RCQ) to be in contact with the parasite for an entire developmental cycle without purine starvation, which is in contrast to the traditional ^3H-hypoxanthine method (Desjardins et al., Antimicrob. Agents Chemother., 16(6):710-718, 1979). Briefly, to perform the Smilkstein et al. method, an initial parasitemia of approximately 0.2% is attained by adding uninfected red blood cells (RBCs) to a stock culture of Plasmodium sp.-infected RBCs. […] After a period of incubation (such as about 72 hours), a sufficient amount (e.g., 100 μL) of a fluorescent DNA binding dye-detergent mixture (e.g., Sybr Green I dye-detergent mixture) to lyse cells and bind to DNA is added to the reactions. Because uninfected RBCs have no DNA, only parasite DNA (in infected RBCs) is available for binding to the fluorescent dye (e.g., Sybr Green I). Samples are then incubated in the dark for a period of time (e.g., one hour), followed by measurement of levels of fluorescence. For Sybr Green I, excitation and emission wavelength are 485 and 530 nm, respectively. Fluorescence readings, which represent the amount of parasite DNA in the sample, can be plotted against the Log [drug] and fit to a curve by nonlinear regression to obtain the IC50 value for the tested compound.
(§2) An in vitro fluorescence assay for determining IC50 of antimalarial drugs was performed as previously described by Smilkstein et al. (Antimicrob. Agents Chemother., 48(5):1803-1806, 2004). This relatively low-cost procedure can be automated for high-throughput screening of the antimalarial activities of RCQs described herein. Advantageous, this method also allows the tested agent (e.g, a RCQ) to be in contact with the parasite for an entire developmental cycle without purine starvation (which occurs with the commonly used ^3H-hypoxanthine method; see, e.g., Desjardins et al., Antimicrob. Agents Chemother., 16, (6):[…], 1979).
(§3) Briefly, an initial parasitemia of approximately 0.2% was attained by addition of uninfected red blood cells to a stock culture of cells infected with Dd2 (CQ^R) or D6 (CQ^S) P. falciparum strains. A 10 mM RCQ_02 solution (in DMSO) was prepared. RCQ_02 (at a final concentration from 10^−11 to 10^−4 M) and infected red blood cells (at a final concentration of 2% (v/v)) were mixed in 100 μL samples in individual wells of a 96-well plate. Each sample was prepared in triplicate. A triplicate set of reactions containing CQ (instead of RCQ_02) was included as a control. After a 72 hour incubation period, Sybr Green I dye-detergent mixture (100 μL) was added to each reaction. The samples were further incubated for an hour in the dark, and then placed in a 96-well fluorescence plate reader (Gemini-EM, […]) and analyzed with excitation and emission wavelength bands at 485 and 530 nm, respectively. Fluorescence readings were plotted against the Log [drug], and curve fitting performed by nonlinear regression to find the IC50 value.

[3] = test system: P. falciparum strain FCR3; settings: cited from earlier work; further: key: S = sensitive; R = resistant; S/R = intermediate level of resistance
[4] = test system: P. falciparum strain TM91C235; settings: cited from earlier work; further: key: S = sensitive; R = resistant; S/R = intermediate level of resistance
[5] = test system: P. falciparum strain W2; settings: cited from earlier work; further: key: S = sensitive; R = resistant; S/R = intermediate level of resistance
[6] = test system: P. falciparum strain Dd2; settings: cited from earlier work; further: key: S = sensitive; R = resistant; S/R = intermediate level of resistance
[7] = test system: P. falciparum strain 3D7; settings: cited from earlier work; further: key: S = sensitive; R = resistant; S/R = intermediate level of resistance
[8] = test system: W2 (CQ^R) P. falciparum strain; test: In vitro fluorescence (Sybr Green I) growth inhibition assay, W2 strain; assay type: cell-based; settings: Plasmodium falciparum
[9] = pH 5.7; Dorn et al., Xu et al.; cited from earlier work
[10] = test system: D6 (CQ^S) P. falciparum strain; test: In vitro fluorescence (Sybr Green I) growth inhibition assay, D6 strain; assay type: cell-based; settings: Plasmodium falciparum
Source text: as §1, §2, §3

[11] = Heme binding by UV-VIS spectrophotometric titration (association constant); settings: similar methodologies as for RCQ_02
Source text: Optionally, heme binding of RCQ compounds can be determined by any method known in the art, including, for example, spectrophotometric methods, like UV-VIS spectroscopy or NMR spectroscopy. Methods of measuring heme binding to a variety of molecules using the UV-VIS spectrum have been described (see, e.g., Xu et al., J. Inorg. Biochem., 86 (2-3):617-625, 2001; Xu et al., Antimicrob. Agents Chemother., 46(1):144-150, 2002). Generally, a heme-binding compound (such as a disclosed RCQ) is mixed in increasing concentration with heme (or a heme model compound, such as porphyrin or metalloporphyrin) and the absorbance spectrum is measured from the ultraviolet region well into the visible region (from about 300 nm to about 750 nm). This spectral range includes the so-called Soret and Q-band regions that arise from porphyrin or metalloporphyrin absorbance. Upon interaction between a heme-binding compound and heme (or a heme model compound, such as porphyrin or metalloporphyrin), decreased absorbance in the Soret region is observed. […]
In particular examples, the formation of heme-RCQ complexes can be determined by UV-VIS spectrophotometric titration, using a variety of commercially available spectrophotometers (such as a Varian-Cary 3E spectrophotometer). […] Optionally, pH can be monitored throughout the procedure to ensure that it remains unchanged. […]

[12] = test system: mitogen-induced murine spleen lymphocytes; assay type: cell-based; settings: mouse spleen lymphocytes; for Cytotoxicity: LC50, 72 hours + 24 hours resazurin
Protocol: Mouse spleen lymphocytes were isolated from C57B1/6J mice by teasing tissues on a metallic sieve screen. […] Two hundred (200) μl isolated cells were then seeded in separate wells of a 96-well flat-bottom tissue culture plate at a density of 2×10^5 cells per well. […] After 72 hours incubation in a humidified atmosphere at 37° C. and 5% CO2, a solution of resazurin PBS was added to a final concentration 10 μM, and the plates were returned to the incubator for another 24 hours. Resazurin is a substrate which changes color in response to metabolic activity (such as, living cells). […] LC50 values were determined from plots of florescence versus drug concentration using non-linear regression by Prism software.

[13] = target: T1, recombinant human serotonin (hSERT) transporter (Homo sapiens, UniProt P31645); test: Inhibition of [3H]neurotransmitter uptake, hSERT; assay type: cell-based
T1 construct: expressed in transfected cells; host or cells: HEK cells expressing hSERT
Protocol: (§4) Selected RCQs were tested for inhibition of [^3H]neurotransmitter uptake by the recombinant human serotonin (hSERT), dopamine (HEK-hDAT), and norepinephrine (hNET) transporters by a modification of the method of Eshleman et al. (J. Pharmacol. Exp. Ther., 289(2):877-885, 1999). HEK-hDAT, hSERT, and -hNET expressing cells were grown on tissue culture dishes. After removing the medium and washing the plates with Ca^2+-, Mg^2+-free phosphate buffered saline (PBS), fresh medium was added and the plates were placed in a 25° C. water bath for 5 minutes. Cells were gently lifted from the plates and cell clusters separated by trituration. 50 μL aliquots of the suspended cells were added to assay tubes containing drugs and Krebs-HEPES assay buffer in a final volume of 0.5 mL.
(§5) Competition experiments were conducted in triplicate. After a 10 minute preincubation period at 25° C., [^3H]neurotransmitter (20 nM final concentration; [^3H]DA, [^3H]5-HT, or [^3H]NE) were added, and the mixtures incubated for 10 minutes. Reactions were terminated by filtration through Wallac filtermat A filters (presoaked in 0.05% polyethylenimine), using a Tomtec cell harvester. Scintillation fluid was added to each filtered spot, and radioactivity remaining on the filters determined using a Wallac 1205 Betaplate scintillation counter.
(§6) Specific uptake was defined as the difference in uptake observed in the absence and presence of 5 μM mazindol (hDAT and hNET) or 5 μM imipramine (hSERT). Inhibition of uptake was determined by non-linear regression using Prism software.

[14] = target: T2, recombinant human dopamine (HEK-hDAT) transporter (Homo sapiens, UniProt Q01959); test: Inhibition of [3H]neurotransmitter uptake, hDAT; assay type: cell-based
T2 construct: expressed in transfected cells; host or cells: HEK cells expressing hDAT (HEK-hDAT)
Protocol: as §4, §5, §6

[15] = target: T3, recombinant human norepinephrine (hNET) transporter (Homo sapiens, UniProt P23975); test: Inhibition of [3H]neurotransmitter uptake, hNET; assay type: cell-based
T3 construct: expressed in transfected cells; host or cells: HEK cells expressing hNET
Protocol: as §4, §5, §6

[16] = DD2, Table 13, growth inhibition, read-out: IC50 (nM) Dd2 (CQ^R)
[17] = D6, Table 13, growth inhibition, read-out: IC50 (nM) D6 (CQ^S)

T1 sequence (P31645 whole entry): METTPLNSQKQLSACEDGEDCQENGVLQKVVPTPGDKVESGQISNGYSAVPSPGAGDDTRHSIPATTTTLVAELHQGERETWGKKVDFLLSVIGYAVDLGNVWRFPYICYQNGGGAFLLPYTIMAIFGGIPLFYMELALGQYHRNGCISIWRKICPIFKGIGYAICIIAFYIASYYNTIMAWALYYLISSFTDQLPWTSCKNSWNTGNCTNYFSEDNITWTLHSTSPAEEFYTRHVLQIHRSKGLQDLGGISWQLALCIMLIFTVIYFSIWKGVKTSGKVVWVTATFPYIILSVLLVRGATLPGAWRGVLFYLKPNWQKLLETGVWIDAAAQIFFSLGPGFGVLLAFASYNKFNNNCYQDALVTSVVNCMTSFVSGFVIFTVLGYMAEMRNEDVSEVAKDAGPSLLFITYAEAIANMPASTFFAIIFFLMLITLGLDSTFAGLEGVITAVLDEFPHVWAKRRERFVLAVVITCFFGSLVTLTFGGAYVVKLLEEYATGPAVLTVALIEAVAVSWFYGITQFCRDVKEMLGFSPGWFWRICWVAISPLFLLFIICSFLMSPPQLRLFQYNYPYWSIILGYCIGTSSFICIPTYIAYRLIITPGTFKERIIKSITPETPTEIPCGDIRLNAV
T3 sequence (P23975 whole entry): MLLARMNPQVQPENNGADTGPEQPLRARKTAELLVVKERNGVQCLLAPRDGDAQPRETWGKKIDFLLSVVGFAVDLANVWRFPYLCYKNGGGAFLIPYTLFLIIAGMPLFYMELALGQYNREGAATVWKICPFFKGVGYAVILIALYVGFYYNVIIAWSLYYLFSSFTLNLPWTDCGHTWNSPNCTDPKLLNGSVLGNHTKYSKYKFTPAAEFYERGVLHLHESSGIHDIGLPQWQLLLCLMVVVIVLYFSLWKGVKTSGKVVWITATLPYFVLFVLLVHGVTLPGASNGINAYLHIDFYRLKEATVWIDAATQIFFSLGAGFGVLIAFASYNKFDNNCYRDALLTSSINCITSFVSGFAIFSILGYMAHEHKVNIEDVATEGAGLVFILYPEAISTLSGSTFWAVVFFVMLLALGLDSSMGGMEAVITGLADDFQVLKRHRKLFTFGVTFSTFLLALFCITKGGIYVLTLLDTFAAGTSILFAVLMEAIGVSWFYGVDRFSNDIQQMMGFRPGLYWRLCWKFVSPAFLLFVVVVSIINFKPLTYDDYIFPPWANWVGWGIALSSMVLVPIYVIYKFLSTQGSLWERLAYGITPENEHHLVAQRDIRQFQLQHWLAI
T2 sequence (Q01959 whole entry): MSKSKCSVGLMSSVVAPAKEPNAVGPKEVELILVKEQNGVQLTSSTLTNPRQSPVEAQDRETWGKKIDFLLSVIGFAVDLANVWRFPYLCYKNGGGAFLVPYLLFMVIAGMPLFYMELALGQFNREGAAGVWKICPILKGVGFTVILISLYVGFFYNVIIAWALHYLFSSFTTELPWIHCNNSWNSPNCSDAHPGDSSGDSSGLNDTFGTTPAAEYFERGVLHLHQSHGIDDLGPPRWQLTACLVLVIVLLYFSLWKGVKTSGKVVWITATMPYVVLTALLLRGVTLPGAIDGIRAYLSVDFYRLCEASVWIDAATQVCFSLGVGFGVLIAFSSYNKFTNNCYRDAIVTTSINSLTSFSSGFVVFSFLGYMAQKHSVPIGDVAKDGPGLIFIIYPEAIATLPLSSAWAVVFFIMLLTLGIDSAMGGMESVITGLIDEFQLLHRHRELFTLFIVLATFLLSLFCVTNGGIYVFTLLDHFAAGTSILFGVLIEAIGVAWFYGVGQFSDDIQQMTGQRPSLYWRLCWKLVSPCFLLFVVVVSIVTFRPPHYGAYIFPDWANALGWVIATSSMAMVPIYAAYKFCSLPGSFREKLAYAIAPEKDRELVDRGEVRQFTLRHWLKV

| SMILES | IC50 [2, 16] [nM] | Cytotoxicity [12] [nM] | IC50 [10, 17] [nM] | IC50 [13] [nM] | IC50 [14] [nM] | IC50 [15] [nM] | other results |
| --- | --- | --- | --- | --- | --- | --- | --- |
| CCN(CC)CCCC(C)Nc1ccnc2cc(Cl)ccc12 (stereo not drawn) [CQ, chloroquine] | – | – | – | – | – | – | Drug susceptibility, strain D6 [1]: S; pIC50 ([2]; DD2, 72 h): 6.99; IC50 ([2]; DD2, read-out: IC50 (nM) Dd2 (CQ^R)): 102 nM; Drug susceptibility, strain FCR3 [3]: R; Drug susceptibility, strain TM91C235 [4]: R; Drug susceptibility, strain W2 [5]: R; Drug susceptibility, strain Dd2 [6]: R; Drug susceptibility, strain 3D7 [7]: S; IC50 ([8]; W2, read-out: IC50 (nM) W2 (CQ^R)): 250 nM; association constant reported for CQ.heme2 [9]: ~400000 M⁻¹; pIC50 ([10]; D6, 72 h): 8.19; IC50 ([10]; D6, read-out: IC50 (nM) D6 (CQ^S)): 6.9 nM |
| Clc1ccc2c(NCCN3CCN(C(c4ccccc4)c4ccccc4)CC3)ccnc2c1 [RCQ_31] | 3.6 | 1900 | 1 | – | – | – | heme association constant [11]: 500000 M⁻¹; IC50 ([8]; W2, Table 13, growth inhibition, read-out: IC50 (nM) W2 (CQ^R)): 4.3 nM |
| Clc1ccc2c(NCCCN3CCCN(C(c4ccccc4)c4ccccc4)CC3)ccnc2c1 [RCQ_73] | 4.1 | 700 | 4.8 | 1160 | 1400 | 660 | cytotoxicity values ([12]; Table 14): 700 nM |
| Clc1ccc2c(NCCCN3CCCN(C4c5ccccc5-c5ccccc54)CC3)ccnc2c1 [RCQ_76] | 15.3 | 2500 | 21.1 | 965 | 1080 | 550 | – |
